Laboratory results from the NIST ThermoML archive (doi:10.1016/j.fluid.2004.09.013).

Settings: for mass density: Fluid (supercritical or subcritical phases), Vibrating tube method; for vapor or sublimation pressure: Liquid

C/C=C\C [(Z)-2-butene]
Settings	mass density [kg/m3]
273.24 K, 530 kPa	644.99
273.24 K, 5019 kPa	650.08
273.24 K, 10002 kPa	655.33
273.24 K, 15013 kPa	660.23
273.24 K, 19996 kPa	664.79
273.24 K, 24988 kPa	669.08
273.24 K, 29997 kPa	673.15
273.24 K, 35005 kPa	677.01
273.24 K, 39991 kPa	680.66
278.25 K, 531 kPa	639.3
278.25 K, 4987 kPa	644.61
278.25 K, 10000 kPa	650.13
278.25 K, 15004 kPa	655.23
278.25 K, 19984 kPa	659.97
278.25 K, 25004 kPa	664.45
278.25 K, 30003 kPa	668.65
278.25 K, 34993 kPa	672.62
278.25 K, 39994 kPa	676.39
283.26 K, 528 kPa	633.56
283.26 K, 5005 kPa	639.17
283.26 K, 9984 kPa	644.91
283.26 K, 14999 kPa	650.24
283.26 K, 19995 kPa	655.17
283.26 K, 25010 kPa	659.81
283.26 K, 29992 kPa	664.14
283.26 K, 35004 kPa	668.25
283.26 K, 39997 kPa	672.15
288.27 K, 531 kPa	627.75
288.27 K, 4995 kPa	633.64
288.27 K, 10005 kPa	639.69
288.27 K, 14999 kPa	645.22
288.27 K, 20014 kPa	650.37
288.27 K, 25005 kPa	655.16
288.27 K, 29991 kPa	659.64
288.27 K, 34992 kPa	663.87
288.27 K, 40003 kPa	667.9
293.28 K, 532 kPa	621.87
293.28 K, 4990 kPa	628.07
293.28 K, 10006 kPa	634.4
293.28 K, 20011 kPa	645.53
293.28 K, 25006 kPa	650.48
293.28 K, 30000 kPa	655.14
293.28 K, 34996 kPa	659.52
293.28 K, 39986 kPa	663.65
293.29 K, 14995 kPa	640.16
298.29 K, 29993 kPa	650.63
298.3 K, 528 kPa	615.89
298.3 K, 5009 kPa	622.46
298.3 K, 9991 kPa	629.06
298.3 K, 14998 kPa	635.11
298.3 K, 20004 kPa	640.67
298.3 K, 24996 kPa	645.82
298.3 K, 34987 kPa	655.14
298.3 K, 40002 kPa	659.43
303.31 K, 568 kPa	609.88
303.31 K, 4986 kPa	616.72
303.31 K, 9987 kPa	623.69
303.31 K, 15011 kPa	630.03
303.31 K, 20004 kPa	635.8
303.31 K, 25003 kPa	641.15
303.31 K, 29993 kPa	646.12
303.31 K, 34986 kPa	650.78
303.31 K, 40003 kPa	655.2
308.32 K, 610 kPa	603.77
308.32 K, 5003 kPa	610.96
308.32 K, 9990 kPa	618.26
308.32 K, 14985 kPa	624.84
308.32 K, 19996 kPa	630.86
308.32 K, 24991 kPa	636.41
308.32 K, 29986 kPa	641.56
308.32 K, 34983 kPa	646.37
308.32 K, 40002 kPa	650.92
313.2 K, 842 kPa	598.01
313.2 K, 25002 kPa	631.74
313.21 K, 4983 kPa	605.15
313.21 K, 9999 kPa	612.86
313.21 K, 14998 kPa	619.73
313.21 K, 19993 kPa	625.98
313.21 K, 29990 kPa	637.05
313.21 K, 34989 kPa	642.02
313.21 K, 39990 kPa	646.68
318.21 K, 898 kPa	591.77
318.21 K, 4989 kPa	599.26
318.21 K, 9999 kPa	607.36
318.21 K, 14989 kPa	614.54
318.21 K, 19986 kPa	621.05
318.21 K, 24990 kPa	627.03
318.21 K, 30002 kPa	632.56
318.21 K, 34994 kPa	637.68
318.21 K, 39987 kPa	642.47
323.21 K, 965 kPa	585.41
323.21 K, 4984 kPa	593.22
323.21 K, 9985 kPa	601.76
323.21 K, 14986 kPa	609.3
323.21 K, 20004 kPa	616.11
323.21 K, 25000 kPa	622.31
323.21 K, 29993 kPa	628.01
323.21 K, 34993 kPa	633.32
323.21 K, 40000 kPa	638.29
328.21 K, 14983 kPa	604.03
328.21 K, 25010 kPa	617.59
328.21 K, 34998 kPa	628.95
328.21 K, 40002 kPa	634.07
328.22 K, 1031 kPa	578.91
328.22 K, 4985 kPa	587.11
328.22 K, 9992 kPa	596.13
328.22 K, 19995 kPa	611.12
328.22 K, 29991 kPa	623.48
333.22 K, 1102 kPa	572.28
333.22 K, 4993 kPa	580.89
333.22 K, 10002 kPa	590.44
333.22 K, 14991 kPa	598.72
333.22 K, 19994 kPa	606.12
333.22 K, 24988 kPa	612.8
333.22 K, 30003 kPa	618.94
333.22 K, 34991 kPa	624.59
333.22 K, 40010 kPa	629.87
338.22 K, 1174 kPa	565.5
338.22 K, 4996 kPa	574.54
338.22 K, 9996 kPa	584.64
338.22 K, 14984 kPa	593.34
338.22 K, 19986 kPa	601.06
338.22 K, 25003 kPa	608.03
338.22 K, 29995 kPa	614.37
338.22 K, 34988 kPa	620.2
338.22 K, 39995 kPa	625.64
343.22 K, 1261 kPa	558.56
343.22 K, 4987 kPa	568.03
343.22 K, 9997 kPa	578.77
343.22 K, 14987 kPa	587.91
343.22 K, 19988 kPa	595.98
343.22 K, 25014 kPa	603.24
343.22 K, 30005 kPa	609.78
343.22 K, 34992 kPa	615.82
343.22 K, 40014 kPa	621.42
348.22 K, 1356 kPa	551.46
348.22 K, 4981 kPa	561.37
348.22 K, 10002 kPa	572.81
348.22 K, 14996 kPa	582.44
348.22 K, 19993 kPa	590.86
348.22 K, 25004 kPa	598.39
348.22 K, 30012 kPa	605.19
348.22 K, 34983 kPa	611.41
348.22 K, 39993 kPa	617.18
353.22 K, 1456 kPa	544.16
353.22 K, 5002 kPa	554.62
353.22 K, 14994 kPa	576.89
353.22 K, 19998 kPa	585.7
353.22 K, 24991 kPa	593.51
353.22 K, 29987 kPa	600.55
353.22 K, 34994 kPa	606.99
353.22 K, 40002 kPa	612.94
353.23 K, 10003 kPa	566.75
358.22 K, 1569 kPa	536.68
358.22 K, 4987 kPa	547.6
358.22 K, 9992 kPa	560.57
358.22 K, 15002 kPa	571.3
358.22 K, 19998 kPa	580.5
358.22 K, 24995 kPa	588.63
358.22 K, 29992 kPa	595.93
358.22 K, 34990 kPa	602.57
358.22 K, 40000 kPa	608.7
363.23 K, 1690 kPa	528.95
363.23 K, 4993 kPa	540.42
363.23 K, 9989 kPa	554.28
363.23 K, 15000 kPa	565.61
363.23 K, 19996 kPa	575.23
363.23 K, 25014 kPa	583.72
363.23 K, 29996 kPa	591.25
363.23 K, 34991 kPa	598.13
363.23 K, 40007 kPa	604.46
368.22 K, 1794 kPa	520.86
368.22 K, 4994 kPa	533.05
368.22 K, 9998 kPa	547.94
368.22 K, 15001 kPa	559.86
368.22 K, 20006 kPa	569.97
368.22 K, 24996 kPa	578.78
368.22 K, 30000 kPa	586.63
368.23 K, 35006 kPa	593.73
368.23 K, 40001 kPa	600.21
373.23 K, 1956 kPa	512.69
373.23 K, 5016 kPa	525.44
373.23 K, 10014 kPa	541.44
373.23 K, 15017 kPa	554.07
373.23 K, 20017 kPa	564.64
373.23 K, 25015 kPa	573.81
373.23 K, 30004 kPa	581.92
373.23 K, 35002 kPa	589.24
373.23 K, 39988 kPa	595.91
378.23 K, 2103 kPa	504.11
378.23 K, 5016 kPa	517.48
378.23 K, 9997 kPa	534.7
378.23 K, 15005 kPa	548.12
378.23 K, 19992 kPa	559.18
378.23 K, 24999 kPa	568.75
378.23 K, 29991 kPa	577.18
378.23 K, 34989 kPa	584.74
378.23 K, 39985 kPa	591.64
383.23 K, 2265 kPa	495.17
383.23 K, 4994 kPa	509.13
383.23 K, 9994 kPa	527.89
383.23 K, 15008 kPa	542.15
383.23 K, 20012 kPa	553.81
383.23 K, 24996 kPa	563.74
383.23 K, 29984 kPa	572.46
383.23 K, 34981 kPa	580.28
383.23 K, 40007 kPa	587.41
388.23 K, 2438 kPa	485.86
388.23 K, 4986 kPa	500.47
388.23 K, 9987 kPa	520.91
388.23 K, 14983 kPa	536.02
388.23 K, 19990 kPa	548.28
388.23 K, 24990 kPa	558.67
388.23 K, 30000 kPa	567.77
388.23 K, 34996 kPa	575.85
388.23 K, 39999 kPa	583.17
393.23 K, 2620 kPa	476.09
393.23 K, 4998 kPa	491.49

Settings	vapor or sublimation pressure [kPa]
290.72 K	166.5
297.95 K	212.17
306.92 K	280.95
316.39 K	369.5
326.09 K	483.32
331.25 K	549.64
335.93 K	625.67
344.91 K	767.01
345.17 K	778.59
353.84 K	949.22
364.75 K	1196.6
367.83 K	1274.3
376.36 K	1508.8
380.95 K	1643.2
382.47 K	1703.7
390.94 K	1988
